Values quoted from earlier work in patent US20030153801A1, “Compositions of cyclooxygenase-2 selective inhibitors and radiation for inhibition or prevention of cardiovascular disease” (Pharmacia Corporation, priority 2001, published 2003).

How the values were obtained:
[1] = test system: vascular smooth muscle cells; conditions: in vitro
[2] = single dose pretreatment, intravenous, before coronary stenting
restenosis = conditions: orally administered; stent implanted pig arteries
[3] = test system: coronary intimal proliferation; conditions: oral administration; swine model of restenosis

## COc1cc(/C=C/C(=O)CC(=O)/C=C/c2ccc(O)c(OC)c2)ccc1O [curcumin]
[1]
  proliferation of vascular smooth muscle cells: reduced

## C[C@H]1C[C@@H]2[C@H]([C@@H](O)C[C@@]3(C)[C@H]2CC[C@]3(O)C(=O)CO)[C@@]2(C)C=CC(=O)C=C12 [methylpridnisolone]
[2]
  change in minimal lumen diameter at 6 months: no effect

## COc1ccc(C=CC(=O)Nc2ccccc2C(=O)O)cc1OC [tranilast, N-(3,4-dimethoxycinnamoyl) anthranilic acid]
restenosis
  rate of restenosis: lower

## CN(C)CCCO[C@@H]1[C@H]2OC(C)(C)O[C@H]2O[C@@H]1[C@H](O)CO.Cl [aniprilose hydrochloride]
[3]
  coronary intimal proliferation: did not prevent
